{"source": "patent US10954305B2", "about": "(Immunomedics, Inc., priority 2016, dated 2021)", "key": {"[1]": {"tested_on": "subline of H23", "settings": "Bessho et al., 2006; cited from earlier work"}, "[2]": {"tested_on": "NCI-N87", "test": "in vitro cytotoxicity, MTS (Table 14)", "format": "cell-based", "settings": "Homo sapiens, YHO-13351 2 μM, Ko143 1 μM where added", "description": "(§1) Each cell line was maintained according to the recommendations of ATCC and routinely tested for mycoplasma using MYCOALERT™ mycoplasma detection kits (Lonza). The two SN-38-resistant cell lines, MDA-MB-231-5120 and NCI-N87-S120, were established by continuous exposure of the parental cells to stepwise increased concentrations of SN-38 from 6 pM to 120 nM over a period of approximately 2 years. In addition, a revertant cell line (NCI-N87-S120-REV) was obtained after culturing NCI-N87-S120 in SN-38-free medium for 4 months. The S-120 clones were maintained in medium containing 120 nM of SN-38, but cultured in drug-free medium for 7 to 14 days prior to any experiment. All cells were grown at 37° C. as monolayer cultures in a humidified atmosphere of 5% CO2.\n(§2) In Vitro cytotoxicity. […] Briefly, cells were placed into wells of 96-well plates. […] Cytotoxicity was measured as a percent of growth relative to untreated cells. Dose-response curves were generated from the mean of triplicate determinations, and IC50 values were calculated using GraphPad Prism Software V 6.05 (Advanced Graphics Software).\n(§3) The effect of ABCG2 inhibitors on the IC50 values of SN-38 for the parental and resistant cell lines was determined from the respective dose-response curves obtained for SN-38 in the presence of a non-toxic concentration of ABCG2 inhibitors."}, "[3]": {"tested_on": "sublines of HeLa", "settings": "Takara et al., 2009; cited from earlier work"}, "[4]": {"tested_on": "NCI-N87-S120", "test": "in vitro cytotoxicity, MTS (Table 14)", "format": "cell-based, human", "settings": "for IC50: NCI-N87-S120, YHO-13351 2 μM, Ko143 1 μM where added; for RF (resistance factor): IC50 mean of NCI-N87-S120 / NCI-N87", "description": "as §1\nas §2, with “plates. […] From these working solutions, serial 5-fold dilutions were made in sterile media to yield final concentrations between 500 and 0.0064 nM in test wells.” for “plates.”\nas §3"}, "[5]": {"tested_on": "MDA-MB-231-S120", "test": "in vitro cytotoxicity, MTS (Table 14)", "format": "cell-based, human", "settings": "for IC50: MDA-MB-231-S120, YHO-13351 2 μM where added; for RF (resistance factor): IC50 mean of MDA-MB-231-S120 / MDA-MB-231", "description": "as §1\nas §2, with “plates. […] From these working solutions, serial 5-fold dilutions were made in sterile media to yield final concentrations between 500 and 0.0064 nM in test wells.” for “plates.”\nas §3"}, "[6]": {"tested_on": "MDA-MB-231", "test": "in vitro cytotoxicity, MTS (Table 14)", "format": "cell-based, human", "settings": "YHO-13351 2 μM where added", "description": "as §1\nas §2, with “plates. […] From these working solutions, serial 5-fold dilutions were made in sterile media to yield final concentrations between 500 and 0.0064 nM in test wells.” for “plates.”\nas §3"}, "[7]": {"tested_on": "sublines of PC-6", "settings": "Kawabata et al., 2001; cited from earlier work"}, "[8]": {"settings": "Weidner et al., 2015; cited from earlier work"}, "[9]": {"tested_on": "p53 in BxPC-3 and Calu-3", "test": "p53 expression", "format": "cell-based, human", "description": "In addition, p53 expression in cells exposed to the ADC was higher in both cell lines compared to SN-38 (not shown). […] In terms of later apoptotic events, cleavage of PARP was evident in both cell lines when incubated with either SN-38 or the conjugate (not shown). […] The higher degree of cleavage with free SN-38 over the ADC was consistent with the cytotoxicity findings."}, "[10]": {"tested_on": "p21^WAF1/Cip1 in MDA-MB-468", "test": "immunoblotting of apoptotic pathway", "format": "cell-based, human", "settings": "by 48 h", "description": "Cells (2×10^6) were plated in 6-well plates overnight. […] Parental hRS7 was used as a control for the ADC."}, "[11]": {"tested_on": "NCI-N87-S120-REV", "test": "in vitro cytotoxicity, MTS", "format": "cell-based, human", "settings": "revertant after 4 months in SN-38-free medium", "description": "as §1\nas §2, with “plates. […] From these working solutions, serial 5-fold dilutions were made in sterile media to yield final concentrations between 500 and 0.0064 nM in test wells.” for “plates.”"}, "[12]": {"tested_on": "NCI-N87", "test": "double-strand breaks, γH2AX", "format": "cell-based, human", "settings": "250 nM, after 3 h", "description": "(§4) Cells (5×10^5 cells/mL per sample) were incubated with or without SN-38 (250 nM) at 37° C. for the indicated times, fixed in 4% formalin for 15 min, then washed and permeabilized in 0.15% TRITON™ X-100 in PBS for 15 min. After washing twice with 1% bovine serum albumin-PBS, the cells were incubated with murine anti-γH2AX-AF488 for 45 min at 4° C. The signal intensity of γH2AX was measured by flow cytometry using a FACSCALIBUR™ (BD Biosciences)."}, "[13]": {"tested_on": "MDA-MB-231", "test": "double-strand breaks, γH2AX", "format": "cell-based, human", "settings": "250 nM, after 3 h", "description": "as §4"}, "[14]": {"tested_on": "p21^Waf1/Cip1 in BxPC-3", "test": "p21Waf1/Cip1 expression", "format": "cell-based, human", "from_the_text": "SN-38 is known to activate several signaling pathways in cells, leading to apoptosis (e.g., Cusack et al., 2001, Cancer Res 61:3535-40; Liu et al. 2009, Cancer Lett 274:47-53; Lagadec et al., 2008, Br J Cancer 98:335-44). Our initial studies examined the expression of 2 proteins involved in early signaling events (p21^Waf1/Cip1 and p53) and 1 late apoptotic event [cleavage of poly-ADP-ribose polymerase (PARP)] in vitro (not shown)."}}}
{"smiles": "COc1cccc2c1C(=O)c1c(O)c3c(c(O)c1C2=O)C[C@@](O)(C(=O)CO)C[C@@H]3O[C@H]1C[C@H](N)[C@H](O)[C@H](C)O1", "note": "[Doxorubicin]", "values": [{"measurement": "resistance ratio", "setting": "[1]", "value": "about 7.0"}, {"measurement": "IC50", "setting": "[2]", "value": "32.2 ± 7.5", "unit": "nM"}, {"measurement": "resistance ratio", "setting": "[3]", "value": 2.5}, {"measurement": "IC50", "setting": "[4]; Homo sapiens", "value": "74.6 ± 3.3", "unit": "nM"}, {"measurement": "RF (resistance factor)", "setting": "[4]", "value": 2.3}, {"measurement": "IC50", "setting": "[5]; Homo sapiens", "value": "43.1 ± 4.6", "unit": "nM"}, {"measurement": "RF (resistance factor)", "setting": "[5]", "value": 4.0}, {"measurement": "IC50", "setting": "[6]; Homo sapiens", "value": "10.9 ± 0.6", "unit": "nM"}, {"measurement": "resistance ratio", "setting": "[7]", "value": "less than 1.3"}]}
{"smiles": "COc1ccc2c3c([nH]c2c1)[C@H](CC(C)C)N1C(=O)[C@H](CCC(=O)OC(C)(C)C)NC(=O)[C@@H]1C3", "note": "[Ko143]", "values": [{"measurement": "effect on SN-38 toxicity in S-120 cells", "setting": "[4]; both S-120 cells, in vitro", "value": "restored toxicity of SN-38"}, {"measurement": "stability in rat serum", "setting": "[8]", "value": "instability"}]}
{"smiles": "CCc1c2c(nc3ccc(O)cc13)-c1cc3c(c(=O)n1C2)COC(=O)[C@]3(O)CC", "note": "[SN-38, 7-ethyl-10-hydroxycamptothecin]", "values": [{"measurement": "time to upregulation of p53", "setting": "[9]", "value": 48, "unit": "h"}, {"measurement": "decrease of p21^WAF1/Cip1", "setting": "[10]", "value": 31, "unit": "%"}, {"measurement": "IC50", "setting": "[11]", "value": 50, "unit": "nM"}, {"measurement": "RF (resistance factor)", "setting": "[4]", "value": 49.1}, {"measurement": "IC50", "setting": "[4]", "value": "211 ± 39", "unit": "nM"}, {"measurement": "resistance of S-120 cells vs parental cells", "setting": "[4]; both S-120 cells", "value": "about 50 fold"}, {"measurement": "RF (resistance factor)", "setting": "[5]", "value": 51.7}, {"measurement": "IC50", "setting": "[5]", "value": "248 ± 79", "unit": "nM"}, {"measurement": "IC50", "setting": "[6]", "value": "4.8 ± 1.7", "unit": "nM"}, {"measurement": "increase of γH2AX over untreated controls", "setting": "[12]", "value": "about 4 fold"}, {"measurement": "increase of γH2AX over untreated controls", "setting": "[13]", "value": "about 2 fold"}, {"measurement": "increase in p21^Waf1/Cip1 expression", "setting": "[14]", "value": 20, "unit": "fold"}]}
